One data set is described as follows: Hepatocyte clearance. In kind it is in vitro ADME. The following applies: cryopreserved hepatocytes, 120 min, read-out: Hep. clearance (converted). How it is done:
Cryopreserved hepatocytes were exposed to test Compounds at a concentration of 1 μM for 120 minutes. Samples were collected at various time points, and percent remaining of test compound was determined using mass spectrometry (LC-MS/MS) to calculate hepatic clearance rate (L/h/kg).

The target in the next data set is T1, human TRPM5 (Homo sapiens, UniProt Q9NZQ8).
T1 sequence (Q9NZQ8 1-1165): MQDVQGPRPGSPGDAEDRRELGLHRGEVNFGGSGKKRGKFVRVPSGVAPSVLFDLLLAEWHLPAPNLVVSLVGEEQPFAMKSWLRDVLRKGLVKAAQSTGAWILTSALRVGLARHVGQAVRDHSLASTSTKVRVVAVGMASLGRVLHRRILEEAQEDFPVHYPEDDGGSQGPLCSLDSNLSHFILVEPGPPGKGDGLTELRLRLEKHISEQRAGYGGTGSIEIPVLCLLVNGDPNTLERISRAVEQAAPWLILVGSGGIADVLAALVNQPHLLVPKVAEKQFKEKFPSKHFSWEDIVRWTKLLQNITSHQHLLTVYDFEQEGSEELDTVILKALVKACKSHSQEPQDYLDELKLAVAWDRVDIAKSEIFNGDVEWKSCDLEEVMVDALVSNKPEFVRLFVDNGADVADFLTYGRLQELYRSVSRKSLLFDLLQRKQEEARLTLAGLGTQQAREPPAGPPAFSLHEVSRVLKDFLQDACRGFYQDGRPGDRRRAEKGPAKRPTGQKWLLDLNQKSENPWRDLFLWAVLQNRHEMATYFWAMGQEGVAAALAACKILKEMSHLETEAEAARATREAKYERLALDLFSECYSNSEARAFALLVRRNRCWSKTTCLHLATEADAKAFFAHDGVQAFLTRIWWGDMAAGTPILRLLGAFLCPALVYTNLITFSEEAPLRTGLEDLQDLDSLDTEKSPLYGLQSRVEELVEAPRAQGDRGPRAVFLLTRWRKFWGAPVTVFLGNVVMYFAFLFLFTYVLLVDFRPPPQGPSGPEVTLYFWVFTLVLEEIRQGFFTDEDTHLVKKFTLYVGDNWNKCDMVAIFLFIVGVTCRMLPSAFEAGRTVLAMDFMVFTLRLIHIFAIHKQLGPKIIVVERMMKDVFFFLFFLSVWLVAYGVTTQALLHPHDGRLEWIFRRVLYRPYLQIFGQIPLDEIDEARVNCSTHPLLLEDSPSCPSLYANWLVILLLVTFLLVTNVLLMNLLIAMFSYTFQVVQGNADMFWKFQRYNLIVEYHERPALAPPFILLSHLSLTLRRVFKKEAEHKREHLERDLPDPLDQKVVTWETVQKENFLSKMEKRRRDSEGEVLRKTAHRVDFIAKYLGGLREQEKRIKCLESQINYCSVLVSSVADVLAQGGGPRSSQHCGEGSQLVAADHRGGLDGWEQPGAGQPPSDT
Briefly: QPatch automated patch clamp on TRPM5-expressing HEK293 cells. In kind it is cell-based. The following applies: hsTRPM5-expressing HEK293 cells. From the text:
The counter screening phase involved the inclusion of hsTRPM5-expressing HEK293 cells, as closest homologue, and the parental HEK293 cell line to evaluate selectivity. […] Based on categorization of biological activity, mass spectrometry quality control, and aspects of medicinal chemistry, we prioritized 144 selective hsTRPM4 compounds. These compounds were then subjected to automated patch clamp electrophysiology measurements (QPatch[58]) to evaluate their activity profiles and IC50 values (Figures 1A, S1, and S2).
QPatchHTX, an automated electrophysiology platform, was used in single hole mode. One day before use human TRPM4- or TRPM5-expressing HEK293 cells were seeded in a T75 flask at a density of 53k cells per cm^2 and at passages < 23. For QPatch assays, cells were harvested and re-suspended in SFM (Gibco, 11686029). The extracellular solution was (in mM): CaCl2 (7), MgCl2 (2), KCl (5), HEPES (10), NaCl (70), NMDG (70); pH 7.4 with NaOH. The intracellular solution was (in mM): HEPES (10), NMDG (100), NaCl (50), EGTA (20), MgCl2 (1), CaCl2 (21); pH 7.2 with HCl. After break-in, channels were consistently open and current through the channels could be observed at a voltage ramp from –100 mV to +100 mV over 500 ms. This protocol was repeated every 7 seconds. After saline and vehicle application, the channel was desensitized and residual current was used as baseline. FFA was used as reference compound and applied cumulatively with each concentration incubating at a minimum of 20 voltage protocol runs (140 seconds) with the current after addition of FFA being calculated as full block. […] Each compound was measured at least 3 time independently.
In general terms: Patch clamp records ionic current or voltage across a cell membrane.

The next data set has as its target T2, CYP 1A2 (Homo sapiens, UniProt P05177).
T2 construct: purchased BD Gentest
T2 sequence (P05177 1-516): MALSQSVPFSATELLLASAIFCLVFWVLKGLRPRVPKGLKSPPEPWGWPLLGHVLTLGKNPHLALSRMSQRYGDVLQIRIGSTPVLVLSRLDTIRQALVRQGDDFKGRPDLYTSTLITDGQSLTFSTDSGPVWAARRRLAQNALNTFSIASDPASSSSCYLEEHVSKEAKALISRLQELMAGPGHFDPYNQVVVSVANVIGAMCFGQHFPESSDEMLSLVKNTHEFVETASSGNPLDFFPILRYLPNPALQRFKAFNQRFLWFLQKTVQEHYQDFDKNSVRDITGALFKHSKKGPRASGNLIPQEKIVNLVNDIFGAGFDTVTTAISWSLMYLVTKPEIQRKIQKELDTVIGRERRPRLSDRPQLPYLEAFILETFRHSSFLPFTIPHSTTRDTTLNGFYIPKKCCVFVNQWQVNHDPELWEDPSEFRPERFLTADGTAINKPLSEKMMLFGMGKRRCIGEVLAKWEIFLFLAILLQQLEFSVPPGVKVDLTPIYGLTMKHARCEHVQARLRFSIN
Briefly: CYP inhibition assay 1A2. In kind it is in vitro ADME. How it is done: The half-maximal inhibitory concentration (IC50) for cytochrome P450 (CYP) enzymes was determined using an in vitro enzyme inhibition assay. Recombinant CYP enzymes or human liver microsomes from BD Gentest, in 0.1 M phosphate buffer pH 7.4, containing native CYP enzymes were incubated with the test compound at various concentrations (1, 3, 10 and 30 μM) and containing 0.5% DMSO and 0.1% BSA final concentrations. 1 mM of NADPH cofactor was added and the reaction was started by a rapid increase of temperature until 37°C.

Take `Fc1cccc(-c2ccccc2NCc2nc3ccccc3o2)c1` [CMP343]: the CLint scaled at 1 μM in the data set “Hepatocyte clearance” is 322 mL/min/kg. Moreover, on human TRPM5, the IC50 (commonly the concentration that inhibits the measured activity by half) was over 10 µM.

With `Fc1ccccc1-c1ccccc1NCc1nc2ccccc2o1` [CMP353], the CLint scaled at 1 μM in “Hepatocyte clearance” was 562 mL/min/kg. In addition, the IC50 against human TRPM5 is over 10 µM; on CYP 1A2 it was 1 µM.

For the compound `c1csc(-c2ccccc2NCc2nc3ccccc3o2)c1` [CMP355], the CLint scaled at 1 μM in “Hepatocyte clearance” is 293 mL/min/kg. Moreover, the values for the IC50 on human TRPM5 and against CYP 1A2 were over 10 µM and 1.3 µM, respectively.

For the compound `Cc1ccsc1-c1ccccc1NCc1nc2ccccc2o1` [CMP369], in the data set “Hepatocyte clearance”, the CLint scaled at 1 μM is 347 mL/min/kg. On human TRPM5, this compound returned a half-maximal inhibitory concentration (IC50) of over 10 µM.

Take `Nc1ccccc1-c1ccccc1NCc1nc2ccccc2o1` [CMP457]: the IC50 against human TRPM5 was over 30 µM.
